# In patent US10717720B2, “Modified compound of andrographolide” (Heilongjiang Zhenbaodao Pharmaceutical Co., Ltd., priority 2015, dated 2020):
# System: LPS-induced IL-6 release level from THP-1 cells
# Assay: Test of IL-6 release from THP-1 cells (LPS-induced, IL-6 in supernatant detected by CBA)
# Format: cell-based
# Details: Homo sapiens, THP-1, 24 h, read-out: Inhibition rate @ 10 uM
# Protocol: Test of IL-6 Release from THP-1 Cells
# The inhibitory effect of the compound on LPS-induced IL-6 release level from THP-1 cells was evaluated by measuring the level of IL-6 in the cell culture supernatant.
# 4 ul was taken from each above solution and added to lml of culture solution to make 120 uM, 40 uM, 12 uM, 4 uM. 50 ul per well was taken and added to wells with cells to give final concentrations of 30 uM, 10 uM, 3 uM, and 1 uM, respectively. Dexamethasone was added as a positive drug into an individual cell well with a final concentration of 100 nM. • c) Cell stimulation
# The LPS 1 mg/ml solution was diluted to 800 ng/ml with the culture solution and added to the cell culture wells at 50 ul/well. • d) Cell incubation and detection
# The cell culture plate was placed in a 37° C. incubator, and the supernatant was collected after culturing for 24 hours. The level of IL-6 in the supernatant was detected by CBA.
row,SMILES,inhibition at 10 µM
1,"C=C1CCC2[C@]3(C)CO[C@@H](C4CCCC4)O[C@@H]3CC[C@@]2(C)[C@@H]1CCN(CC(=O)O)CC(=O)O (stereo partly drawn) [Compound 404, 2,2′-((2-((3R,4aR,6aS,7R,10bR)-3-cyclopentyl-6a,10b-dimethyl-8-methylene-decahydro-1H-naphtho[2,1-d][1,3]dioxin-7-yl)ethyl)azanediyl)diacetic acid]",< 30%
2,"C=C1CCC2[C@]3(C)CO[C@@H](C4CCCC4)O[C@@H]3CC[C@@]2(C)[C@@H]1CCOc1cncc(C(=O)O)c1 (stereo partly drawn) [Compound 406, 5-(2-((3R,4aR,6aS,7R,10bR)-3-cyclopentyl-6a,10b-dimethyl-8-dihydromethylenedecahydro-1H-naphtho[2,1-d][1,3]dioxin-7-yl)ethoxy)nicotinic acid]",< 30%
3,"C=C1CCC2[C@]3(C)CO[C@@H](C4CCCC4)O[C@@H]3CC[C@@]2(C)[C@@H]1CCOc1ccn(CC(=O)O)c(=O)c1 (stereo partly drawn) [Compound 428, 2-(4-(2-((3R,4aR,6aS,7R,10bR)-3-cyclopentyl-6a,10b-dimethyl-8-dihydromethylenedecahydro-1H-naphtho[2,1-d][1,3]dioxin-7-yl)ethoxy)-2-carbonylpyridin-1(2H)-yl)acetic acid]",30 to 60%

# Same assay, conditions: Homo sapiens; inflammatory factor IL-6 detected by CBA; compound 10 uM; LPS-stimulated THP-1 cells, supernatant after 24 hours; read-out: Inhibition rate @ 10 uM
row,SMILES,inhibition at 10 µM
1,"C=C1CCC2[C@](C)(CO)[C@H](O)CC[C@@]2(C)[C@@H]1CCOc1ccncc1 (stereo partly drawn) [Compound 385, (1R,2R,4aS,5R)-1-(hydroxymethyl)-1,4a-dimethyl-6-dihydromethylene-5-(2-(pyridin-4-oxy)ethyl) decahydronaphthalene-2-ol]",> 60%
2,"C=C1CCC2[C@](C)(CO)[C@H](O)CC[C@@]2(C)[C@@H]1CCOC1CCN(C)CC1 (stereo partly drawn) [Compound 386, (1R,2R,4aS,5R)-1-(hydroxymethyl)-1,4a-dimethyl-6-dihydromethylene-5-(2-((1-methylpiperidine-4-yl)oxy)ethyl) decahydronaphthalene-2-ol]",< 30%
3,"C=C1CCC2[C@]3(C)CO[C@@H](C4CCCC4)O[C@@H]3CC[C@@]2(C)[C@@H]1CCOc1ccncc1C(=O)O (stereo partly drawn) [Compound 397, 4-(2-((3R,4aR,6aS,7R,10bR)-3-cyclopentyl-6a,10b-dimethyl-8-dihydromethylenedecahydro-1H-naphtho[2,1-d][1,3]dioxin-7-yl)ethoxy)nicotinic acid]",> 60%
4,"C=C1CCC2[C@]3(C)CO[C@@H](C4CCCC4)O[C@@H]3CC[C@@]2(C)[C@@H]1CCO (stereo partly drawn) [Compound 399, 2-((3R,4aR,6aS,7R,10bR)-3-cyclopentyl-6a,10b-dimethyl-8-dihydromethylenedecahydro-1H-naphtho[2,1-d][1,3]dioxin-7-yl)ethanol]",> 60%
5,"C=C1CCC2[C@]3(C)CO[C@@H](C4CC4)O[C@@H]3CC[C@@]2(C)[C@@H]1CCOc1ccncc1 (stereo partly drawn) [Compound 400, 4-(2-((3R,4aR,6aS,7R,10bR)-3-cyclopropyl-6a,10b-dimethyl-8-dihydromethylenedecahydro-1H-naphtho[2,1-d][1,3]dioxin-7-yl)ethoxy)pyridine]",> 60%
6,"C=C1CCC2[C@]3(C)COC(C)(C)O[C@@H]3CC[C@@]2(C)[C@@H]1CCOc1ccncc1 (stereo partly drawn) [Compound 402, 4-(2-((4aR,6aS,7R,10bR)-3,3,6a, 10b-tetramethyl-8-dihydromethylenedecahydro-1H-naphtho[2,1-d][1,3]dioxin-7-yl)ethoxy)pyridine]",> 60%
7,"C=C1CCC2[C@]3(C)CO[C@@H](C4CCCC4)O[C@@H]3CC[C@@]2(C)[C@@H]1CCNCC(=O)O (stereo partly drawn) [Compound 403, 2-((2-((3R,4aR,6aS,7R,10bR)-3-cyclopentyl-6a,10b-dimethyl-8-methylenedecahydro-1H-naphtho[2,1-d][1,3]dioxin-7-yl)ethyl)amino)acetic acid]",< 30%
8,C=C1CCC2[C@]3(C)CO[C@@H](CCC(=O)OC)O[C@@H]3CC[C@@]2(C)[C@@H]1CCOc1ccncc1 (stereo partly drawn) [Compound 405],< 30%
9,"C=C1CCC2[C@]3(C)CO[C@@H](C4CCCC4)O[C@@H]3CC[C@@]2(C)[C@@H]1CCOc1ccccc1C(=O)O (stereo partly drawn) [Compound 407, 2-(2-((3R,4aR,6aS,7R,10bR)-3-cyclopentyl-6a,10b-dimethyl-8-dihydromethylenedecahydro-1H-naphtho[2,1-d][1,3]dioxin-7-yl)ethoxy)benzoic acid]",> 60%
10,C=C1CCC2[C@]3(C)CO[C@@H](CCC(=O)O)O[C@@H]3CC[C@@]2(C)[C@@H]1CCOc1ccncc1 (stereo partly drawn) [Compound 408],< 30%
11,"C=C1CCC2[C@]3(C)CO[C@@H](C4CCCC4)O[C@@H]3CC[C@@]2(C)[C@@H]1CCOc1ccc(F)cc1C(=O)O (stereo partly drawn) [Compound 409, 2-(2-((3R,4aR,6aS,7R,10bR)-3-cyclopentyl-6a,10b-dimethyl-8-dihydromethylenedecahydro-1H-naphtho[2,1-d][1,3]dioxin-7-yl)ethoxy)-5-fluorobenzoic acid]",< 30%
12,"C=C1CCC2[C@]3(C)CO[C@@H](C4CCCC4)O[C@@H]3CC[C@@]2(C)[C@@H]1CCOc1ccnc(C(=O)O)c1 (stereo partly drawn) [Compound 410, 4-(2-((3R,4aR,6aS,7R,10bR)-3-cyclopentyl-6a,10b-dimethyl-8-dihydromethylenedecahydro-1H-naphtho[2,1-d][1,3]dioxin-7-yl)ethoxy)picolinic acid]",30 to 60%
13,"C=C1CCC2[C@]3(C)CO[C@@H](C(C)C)O[C@@H]3CC[C@@]2(C)[C@@H]1CCOc1ccncc1 (stereo partly drawn) [Compound 411, 4-(2-((3R,4aR,6aS,7R,10bR)-3-isopropyl-6a,10b-dimethyl-8-dihydromethylenedecahydro-1H-naphtho[2,1-d][1,3]dioxin-7-yl)ethoxy)pyridine]",> 60%
14,"C=C1CCC2[C@]3(C)CO[C@@H](C4CCC4)O[C@@H]3CC[C@@]2(C)[C@@H]1CCOc1ccncc1 (stereo partly drawn) [Compound 412, 4-(2-((3R,4aR,6aS,7R,10bR)-3-cyclobutyl-6a,10b-dimethyl-8-dihydromethylenedecahydro-1H-naphtho[2,1-d][1,3]dioxin-7-yl)ethoxy)pyridine]",> 60%
15,"C=C1CCC2[C@]3(C)CO[C@@H](C4CCCC4)O[C@@H]3CC[C@@]2(C)[C@@H]1CCOc1cnccc1C(=O)O (stereo partly drawn) [Compound 415, 3-(2-((3R,4aR,6aS,7R,10bR)-3-cyclopentyl-6a,10b-dimethyl-8-dihydromethylenedecahydro-1H-naphtho[2,1-d][1,3]dioxin-7-yl)ethoxy)isonicotinic acid]",> 60%
16,C=C1CCC2[C@]3(C)COC4(CCCC4)O[C@@H]3CC[C@@]2(C)[C@@H]1CCOc1ccncc1 (stereo partly drawn) [Compound 416],> 60%
17,"C=C1CCC2[C@]3(C)CO[C@@H](C4CCCC4)O[C@@H]3CC[C@@]2(C)[C@@H]1CCOc1c(C(=O)O)cncc1C(=O)O (stereo partly drawn) [Compound 417, 4-(2-((3R,4aR,6aS,7R,10bR)-3-cyclopentyl-6a,10b-dimethyl-8-dihydromethylenedecahydro-1H-naphtho[2,1-d][1,3]dioxin-7-yl)ethoxy)pyridine-3,5-dicarboxylic acid]",< 30%
18,"C=C1CCC2[C@]3(C)CO[C@@H](C4CCCC4)O[C@@H]3CC[C@@]2(C)[C@@H]1CCOc1ccnc(OC)c1 (stereo partly drawn) [Compound 420, 4-(2-((3R,4aR,6aS,7R,10bR)-3-cyclopentyl-6a,10b-dimethyl-8-dihydromethylenedecahydro-1H-naphtho[2,1-d][1,3]dioxin-7-yl)ethoxy)-2-methoxypyridine]",< 30%
19,"C=C1CCC2[C@]3(C)CO[C@@H](C4CCCC4)O[C@@H]3CC[C@@]2(C)[C@@H]1CCOc1ccc(C(=O)O)cc1 (stereo partly drawn) [Compound 422, 4-(2-((3R,4aR,6aS,7R,10bR)-3-cyclopentyl-6a,10b-dimethyl-8-dihydromethylenedecahydro-1H-naphtho[2,1-d][1,3]dioxin-7-yl)ethoxy)benzoic acid]",30 to 60%
20,"C=C1CCC2[C@]3(C)CO[C@@H](C4CCCC4)O[C@@H]3CC[C@@]2(C)[C@@H]1CCOc1cccc(C(=O)O)c1 (stereo partly drawn) [Compound 423, 3-(2-((3R,4aR,6aS,7R,10bR)-3-cyclopentyl-6a,10b-dimethyl-8-dihydromethylenedecahydro-1H-naphtho[2,1-d][1,3]dioxin-7-yl)ethoxy)benzoic acid]",30 to 60%
21,"C=C1CCC2[C@]3(C)CO[C@@H](C4CCCC4)O[C@@H]3CC[C@@]2(C)[C@@H]1CCOC1CCN(CC(=O)O)CC1 (stereo partly drawn) [Compound 426, 2-(4-(2-((3R,4aR,6aS,7R,10bR)-3-cyclopentyl-6a,10b-dimethyl-8-dihydromethylenedecahydro-1H-naphtho[2,1-d][1,3]dioxin-7-yl)ethoxy)piperidine-1-yl)acetic acid]",30 to 60%
22,"C=C1CCC2[C@]3(C)CO[C@@H](C4CCCCC4)O[C@@H]3CC[C@@]2(C)[C@@H]1CCOc1ccncc1 (stereo partly drawn) [Compound 429, 4-(2-((3R,4aR,6aS,7R,10bR)-3-cyclohexyl-6a,10b-dimethyl-8-dihydromethylenedecahydro-1H-naphtho[2,1-d][1,3]dioxin-7-yl)ethoxy)pyridine]",< 30%
23,"C=C1CCC2[C@]3(C)CO[C@@H](C4CCCC4)O[C@@H]3CC[C@@]2(C)[C@@H]1CCOc1cc[nH]c(=O)c1 (stereo partly drawn) [Compound 430, 4-(2-((3R,4aR,6aS,7R,10bR)-3-cyclopentyl-6a,10b-dimethyl-8-dihydromethylenedecahydro-1H-naphtho[2,1-d][1,3]dioxin-7-yl)ethoxy)pyridin-2(1H)-one]",30 to 60%
24,"C=C1CCC2[C@]3(C)CO[C@@H](C4CCCC4)O[C@@H]3CC[C@@]2(C)[C@@H]1CCOc1cccnc1C(=O)O (stereo partly drawn) [Compound 431, 3-(2-((3R,4aR,6aS,7R,10bR)-3-cyclopentyl-6a,10b-dimethyl-8-dihydromethylenedecahydro-1H-naphtho[2,1-d][1,3]dioxin-7-yl)ethoxy)-2-picolinic acid]",> 60%
